The values below come from PMC8187479, “Sugar phosphate activation of the stress sensor eIF2B” (Nature Communications, 2021).

One test has as its target T1, eIF2B (Homo sapiens, UniProt P49770+Q14232+Q9UI10).
T1 construct: made in house; host or cells: eIF2Bα: E. coli BL21(DE3)
Nature of the test: eIF2B GEF activity assay, unbiased metabolite screen (Bodipy-FL-GDP release). Particulars: 10 μM metabolite. In kind it is biochemical. The protocol:
Bodipy-FL-GDP-loaded eIF2 was used as a substrate for recombinant eIF2B. The assay was performed in 384-well plates. Reactions were read on a SpectraMax i3x plate reader (Molecular Devices) using the instrument’s Softmax Pro software with the following parameters: plate temperature = 25 °C; excitation wavelength = 485 nm (15 nm width); emission wavelength = 535 nm (25 nm width); read duration = 30 min at 45 s intervals. Data were analyzed in Prism. GDP release half-lives were calculated by fitting single-exponential decay curves.
For unbiased screening, MIDAS metabolite libraries at 10 mM stock concentration were dispensed into wells of the assay plate using an Echo Acoustic Liquid Handler (Labcyte). […] A single well was run for each metabolite. […] For targeted experiments with HEK293T lysates, the following conditions were used: 50 nM Bodipy-FL-GDP-loaded eIF2, 0.1 mM GDP, 1 mg/ml BSA, 0.1 or 0.3 mg/ml lysates.

In test [1] the target is T2, eIF2Bα (Homo sapiens, UniProt Q14232).
T2 construct: made in house; host or cells: E. coli BL21(DE3)
T2 sequence (Q14232 1-305): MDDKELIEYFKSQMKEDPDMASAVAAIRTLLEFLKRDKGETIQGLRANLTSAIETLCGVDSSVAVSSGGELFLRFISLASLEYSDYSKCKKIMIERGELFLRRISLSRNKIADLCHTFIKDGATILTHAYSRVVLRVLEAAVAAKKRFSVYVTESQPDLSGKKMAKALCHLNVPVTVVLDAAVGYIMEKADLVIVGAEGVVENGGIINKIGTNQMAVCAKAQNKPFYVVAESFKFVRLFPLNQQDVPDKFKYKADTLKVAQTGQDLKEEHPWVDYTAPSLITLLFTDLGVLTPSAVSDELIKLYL
In words: Differential scanning fluorimetry (Protein Thermal Shift), eIF2Bα Tm. The test is classed as binding. To be noted: individual replicates Rep 1-4, control without metabolite about 64.1. The protocol: The effect of metabolite binding on eIF2Bα Tm was assessed using the Protein Thermal Shift assay (Thermo Fisher), following manufacturer’s instructions. Briefly, reaction conditions for each 20 μL reaction were: 1.1 μg (1.5 μM) of eIF2Bα, 5 μl Thermal Shift buffer, 1X Thermal Shift dye, and metabolites in dose response. Reactions were run in 384-well format on a QuantStudio 6 Flex instrument (Thermo Fisher). The resulting melt curves were analyzed using Protein Thermal Shift Software, and eIF2Bα Tms for each condition were calculated by fitting to the Boltzmann function.
Background: In DSF a fluorescence change marks the thermal transition of the protein.

Test [2] has as its target T2, eIF2Bα. Nature of the test: MIDAS (mass spectrometry integrated with equilibrium dialysis) metabolite binding screen. To be noted: MIDAS screen, sheet eIF2Ba; metabolites screened in pools 1-4; p-value and q-value given. In short, it runs like this: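 Hits called at Storey q < 0.1 on z-scores of PCA-corrected log2 fold change between protein and metabolite chambers, quantified by FIA-MS in triplicate.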

In test [3] the test system is recombinant C. thermophilum eIF2Bα. The arrangement: method as in PMID 26384431. To be noted: ITC; cited from earlier work. For orientation: Isothermal titration calorimetry measures the heat released or taken up as one component is titrated into another.

Values joined by “and” are separate entries in the source; they are usually repeats but may differ in a detail not shown here. Identical values can stand only once.

T1 sequence (P49770 whole entry, one chain of several): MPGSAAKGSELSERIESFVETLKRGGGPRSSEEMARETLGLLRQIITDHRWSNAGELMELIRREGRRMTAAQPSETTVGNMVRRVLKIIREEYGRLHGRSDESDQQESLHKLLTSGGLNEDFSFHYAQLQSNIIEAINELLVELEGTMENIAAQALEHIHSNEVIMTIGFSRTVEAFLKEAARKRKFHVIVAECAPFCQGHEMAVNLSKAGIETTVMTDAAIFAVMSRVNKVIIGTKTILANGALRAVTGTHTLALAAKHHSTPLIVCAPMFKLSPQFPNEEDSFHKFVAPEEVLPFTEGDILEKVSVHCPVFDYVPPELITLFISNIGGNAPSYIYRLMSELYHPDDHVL
T1 sequence (Q9UI10 whole entry, one chain of several): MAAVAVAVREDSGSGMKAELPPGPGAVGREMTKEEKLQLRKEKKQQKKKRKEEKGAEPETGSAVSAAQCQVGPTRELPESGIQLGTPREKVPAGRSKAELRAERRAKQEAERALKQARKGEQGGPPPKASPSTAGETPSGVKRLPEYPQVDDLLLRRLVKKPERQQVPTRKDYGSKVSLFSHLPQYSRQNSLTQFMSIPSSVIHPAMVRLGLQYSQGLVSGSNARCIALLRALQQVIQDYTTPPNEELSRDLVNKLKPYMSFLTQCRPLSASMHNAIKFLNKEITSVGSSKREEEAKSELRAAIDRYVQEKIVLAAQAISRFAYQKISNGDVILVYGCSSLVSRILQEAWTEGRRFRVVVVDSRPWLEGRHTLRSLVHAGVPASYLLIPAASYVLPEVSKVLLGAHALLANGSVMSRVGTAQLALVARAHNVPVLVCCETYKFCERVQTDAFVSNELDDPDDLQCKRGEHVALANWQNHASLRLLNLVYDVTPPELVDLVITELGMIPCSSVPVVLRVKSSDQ
T1 sequence (Q9NR50 whole entry partner, one chain of several): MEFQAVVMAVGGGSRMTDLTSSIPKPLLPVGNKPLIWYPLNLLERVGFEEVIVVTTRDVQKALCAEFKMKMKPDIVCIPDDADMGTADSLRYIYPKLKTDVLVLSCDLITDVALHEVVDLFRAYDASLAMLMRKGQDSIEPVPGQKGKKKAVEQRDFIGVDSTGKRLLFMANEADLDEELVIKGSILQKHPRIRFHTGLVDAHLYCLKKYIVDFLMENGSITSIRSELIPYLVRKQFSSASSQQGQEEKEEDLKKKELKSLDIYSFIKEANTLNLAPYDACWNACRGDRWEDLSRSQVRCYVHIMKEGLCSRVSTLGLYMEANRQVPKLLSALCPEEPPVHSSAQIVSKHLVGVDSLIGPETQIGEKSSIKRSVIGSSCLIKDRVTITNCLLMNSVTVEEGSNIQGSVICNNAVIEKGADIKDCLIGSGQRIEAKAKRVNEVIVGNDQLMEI
T1 sequence (Q13144 whole entry partner, one chain of several): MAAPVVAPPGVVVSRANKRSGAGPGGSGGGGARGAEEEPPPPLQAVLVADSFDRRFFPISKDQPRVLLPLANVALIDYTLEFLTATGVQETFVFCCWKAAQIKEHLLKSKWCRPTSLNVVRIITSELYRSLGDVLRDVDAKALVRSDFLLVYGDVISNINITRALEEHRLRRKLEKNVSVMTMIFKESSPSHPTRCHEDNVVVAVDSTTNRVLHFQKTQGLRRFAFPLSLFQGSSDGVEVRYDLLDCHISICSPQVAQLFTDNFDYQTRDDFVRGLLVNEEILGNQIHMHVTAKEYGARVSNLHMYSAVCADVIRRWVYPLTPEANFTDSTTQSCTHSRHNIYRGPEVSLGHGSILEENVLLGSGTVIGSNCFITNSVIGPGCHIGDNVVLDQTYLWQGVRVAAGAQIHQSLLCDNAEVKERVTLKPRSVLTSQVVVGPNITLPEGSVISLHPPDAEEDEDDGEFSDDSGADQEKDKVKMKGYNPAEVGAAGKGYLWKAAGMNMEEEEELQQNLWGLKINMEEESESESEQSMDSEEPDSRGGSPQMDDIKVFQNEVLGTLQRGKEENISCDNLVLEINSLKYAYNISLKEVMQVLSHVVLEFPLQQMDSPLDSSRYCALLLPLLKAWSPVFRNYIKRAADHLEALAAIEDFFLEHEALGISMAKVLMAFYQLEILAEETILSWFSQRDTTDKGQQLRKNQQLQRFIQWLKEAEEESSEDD

As for `Nc1ncnc2c1ncn2[C@@H]1O[C@H](COP(=O)(O)O)[C@@H](O)[C@H]1O` [AMP, Adenosine monophosphate], the “effect on eIF2B GEF activity in the screen” value at eIF2B is on record as “a hit in this functional assay screen”. For the same compound, the “Tm of eIF2Bα” value is 65.271 °C and 65.2418 °C and 65.0115 °C and 64.5232 °C at eIF2Bα [1] (0.33 mM metabolite); 66.0123 °C and 65.9255 °C and 65.7398 °C and 64.0959 °C on eIF2Bα [1] (1 mM metabolite); 65.3392 °C and 65.2463 °C and 65.3342 °C and 64.7156 °C on eIF2Bα [1] (3.3 mM metabolite); 66.4657 °C and 66.4512 °C and 66.2897 °C and 64.6159 °C on eIF2Bα [1] (10 mM metabolite). For the same compound, the “log2(corrected fold change)” value on eIF2Bα [2] came out at 0.1066. The “binding to C. thermophilum eIF2Bα” value in test [3] is “binding”.
With `Nc1nc2c(ncn2[C@@H]2O[C@H](COP(=O)(O)O)[C@@H](O)[C@H]2O)c(=O)[nH]1` [GMP], the “Tm of eIF2Bα” value is 65.0444 °C and 64.6931 °C and 64.6421 °C and 63.969 °C at eIF2Bα [1] (0.33 mM metabolite); 65.9427 °C and 65.8956 °C and 65.7456 °C and 64.3903 °C on eIF2Bα [1] (1 mM metabolite); 65.9427 °C and 65.7951 °C and 65.7602 °C and 64.8164 °C on eIF2Bα [1] (3.3 mM metabolite); 66.5064 °C and 66.3635 °C and 66.1504 °C and 64.9333 °C at eIF2Bα [1] (10 mM metabolite). Moreover, the “binding to C. thermophilum eIF2Bα” value in test [3] is “binding”.
